A short description of the assay: DPPH radical scavenging antioxidant test. The assay is classed as biochemical. As to conditions: 517 nm; for Inhibition (radical scavenging inhibition): 0.2 mL DPPH (0.75 mM), compound 3 μM in ethanol, 30 min incubation in the dark. The procedure: The antioxidant properties of the 4,4′-naphthalene-1,5-diylbis(diazene-2,1-diyl)dinaphthalen-1-ol were studied by adding 0.2 mL DPPH (0.75 mM)) to compound 4,4′-naphthalene-1,5-diylbis(diazene-2,1-diyl)dinaphthalen-1-01 (III) (3 μM) in ethanol. After 30 min of incubation in the dark, the absorbance was read against a blank at 517 nm. Ascorbic acid (vitamin C) was used as standard antioxidants (positive control). A blank sample was prepared by 0.2 ml of DPPH in 3 ml ethanol. A negative control sample was run using ethanol instead of the sample. The radical scavenging inhibition was calculated using the following equation: […]

Take `Oc1ccc(N=Nc2cccc3c(N=Nc4ccc(O)c5ccccc45)cccc23)c2ccccc12` [Product III, 4,4′-naphthalene-1,5-diylbis(diazene-2,1-diyl)dinaphthalen-1-ol]: the “Inhibition (radical scavenging inhibition)” value is on record as 54%. In addition, the “antioxidant potential compared to vitamin C (in words)” value (DPPH in vitro test, vitamin C as positive control) is “high potential as an antioxidant compared to vitamin C”.

For `O=C1O[C@H]([C@@H](O)CO)C(O)=C1O` [vit c, Ascorbic acid, reference compound], the “Inhibition (radical scavenging inhibition)” value is on record as 74%.

These data come from patent US11919837B1, “4,4′-naphthalene-1,5-diylbis(diazene-2,1-diyl)dinaphthalen-1-ol as an antioxidant compound” (KING FAISAL UNIVERSITY, priority 2023, dated 2024).
